From patent US12497394B2, “Fused-cyclic pyrazolone formamide compound and preparation method therefor, pharmaceutical composition and use thereof” (SHANGHAI INSTITUTE OF MATERIA MEDICA, CHINESE ACADEMY OF …, priority 2018, dated 2025) come the findings set out here.

Test [1] deals with T1, receptor tyrosine kinase AXL (Homo sapiens, UniProt P30530).
T1 construct: 50 μL of AXL kinase domain recombinant protein diluted in reaction buffer was added to start the reaction; made in house; host or cells: insect cells (baculovirus expression system)
T1 sequence (P30530 536-807 limits assumed): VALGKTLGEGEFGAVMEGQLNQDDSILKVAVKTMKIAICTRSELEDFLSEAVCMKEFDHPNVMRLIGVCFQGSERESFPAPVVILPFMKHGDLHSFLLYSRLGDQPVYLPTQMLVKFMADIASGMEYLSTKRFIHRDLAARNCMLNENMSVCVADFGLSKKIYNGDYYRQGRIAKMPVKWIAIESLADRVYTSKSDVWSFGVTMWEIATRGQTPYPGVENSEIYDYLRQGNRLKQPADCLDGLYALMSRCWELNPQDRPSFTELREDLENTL
The test is described as follows: Enzyme activity of receptor tyrosine kinase AXL (ELISA). The conditions noted are these: for inhibition at 0.01 µM: 10 nM; for inhibition at 0.01 µM / inhibition at 0.1 µM / inhibition at 1 µM / inhibition at 0.001 µM: read-out: AXL activity Inhibitory rate(%); for inhibition at 0.1 µM: 100 nM; for inhibition at 1 µM: 1000 nM; for AXL activity (in words): at 1000, 100, and 10 nM; for inhibition at 0.001 µM: 1 nM. The format is biochemical. The protocol: Detection method: Enzyme-linked immunosorbent assay (ELISA)
Tested receptor tyrosine kinase: AXL
The full-wavelength microplate reader for experiment reading was a product of Molecular Device, model: SpectraMax 190; the experiment water was distilled water produced by Sinopharm Group.
Compound preparation: The compounds were centrifuged at 12,000 g for 5 min, and DMSO was added to prepare a 10^−2M stock solution, vortexed evenly and sonicated for 10 min for use, and stored at −40° C. During the test, the compound was diluted from the stock solution to 100 times the tested concentration with DMSO (the DMSO concentration in the system was 1%).
1. […] Discard the liquid from the well. The plate was washed and washed three times with T-PBS (0.1% Tween-20 in potassium-free PBS, 200 μL/well) for 5 minutes each time.
2. 49 μL of ATP solution diluted with reaction buffer (50 mM HEPES pH 7.4, 50 mM MgCl2, 0.5 mM MnCl2, 0.2 mM Na3VO4, 1 mM DTT) was added to each well, and […] of the tested compound was added to each well, and then 50 μL of AXL kinase domain recombinant protein diluted in reaction buffer was added to start the reaction. Two control wells without ATP were added in each experiment. (100 rpm) Reacted in 37° C. shaker for 1 hour. Discard the liquid from the well, and the plate was washed with T-PBS for three times.
3. […] Discard the liquid from the well, and the plate was washed with T-PBS for three times.
4. The horseradish peroxidase-labeled goat anti-mouse second antibody dilution (antibody diluted 1:2000 with BSA 5 mg/mL in T-PBS), 100 μL/well, and reacted in 37° C. shaker for 0.5 hours. Discard the liquid from the well, and the plate was washed with T-PBS for three times.
6. The reaction was quenched with 50 μL/well 2M […], and read at 490 nm using a tunable microplate reader VERSAmax.
The IC50 values were obtained by four-parameter regression analysis using the software supplied with the microplate reader.
(In general: ELISA stands for enzyme-linked immunosorbent assay.)

In test [2] the target is receptor tyrosine kinase c-Met (Homo sapiens, UniProt P08581). In words: In vitro c-Met kinase inhibitory activity. The settings on record: two values per compound; for inhibition at 0.01 µM / inhibition at 0.1 µM / inhibition at 0.001 µM: read-out: c-Met Inhibitory rate (%). The format is biochemical. The source says: Experimental Example 3: Study of In Vitro c-Met Kinase Inhibitory Activity
Since the screening results of 369 kinase profiles of compound DC621044 has shown that the compound has a certain inhibitory activity on c-Met. We further screened some compounds for their inhibitory activity on c-Met kinase.

“And” between values parts separate entries of the source, which are not always exact repeats. Identical values can stand only once.

receptor tyrosine kinase c-Met, sequence (P08581 25-1390): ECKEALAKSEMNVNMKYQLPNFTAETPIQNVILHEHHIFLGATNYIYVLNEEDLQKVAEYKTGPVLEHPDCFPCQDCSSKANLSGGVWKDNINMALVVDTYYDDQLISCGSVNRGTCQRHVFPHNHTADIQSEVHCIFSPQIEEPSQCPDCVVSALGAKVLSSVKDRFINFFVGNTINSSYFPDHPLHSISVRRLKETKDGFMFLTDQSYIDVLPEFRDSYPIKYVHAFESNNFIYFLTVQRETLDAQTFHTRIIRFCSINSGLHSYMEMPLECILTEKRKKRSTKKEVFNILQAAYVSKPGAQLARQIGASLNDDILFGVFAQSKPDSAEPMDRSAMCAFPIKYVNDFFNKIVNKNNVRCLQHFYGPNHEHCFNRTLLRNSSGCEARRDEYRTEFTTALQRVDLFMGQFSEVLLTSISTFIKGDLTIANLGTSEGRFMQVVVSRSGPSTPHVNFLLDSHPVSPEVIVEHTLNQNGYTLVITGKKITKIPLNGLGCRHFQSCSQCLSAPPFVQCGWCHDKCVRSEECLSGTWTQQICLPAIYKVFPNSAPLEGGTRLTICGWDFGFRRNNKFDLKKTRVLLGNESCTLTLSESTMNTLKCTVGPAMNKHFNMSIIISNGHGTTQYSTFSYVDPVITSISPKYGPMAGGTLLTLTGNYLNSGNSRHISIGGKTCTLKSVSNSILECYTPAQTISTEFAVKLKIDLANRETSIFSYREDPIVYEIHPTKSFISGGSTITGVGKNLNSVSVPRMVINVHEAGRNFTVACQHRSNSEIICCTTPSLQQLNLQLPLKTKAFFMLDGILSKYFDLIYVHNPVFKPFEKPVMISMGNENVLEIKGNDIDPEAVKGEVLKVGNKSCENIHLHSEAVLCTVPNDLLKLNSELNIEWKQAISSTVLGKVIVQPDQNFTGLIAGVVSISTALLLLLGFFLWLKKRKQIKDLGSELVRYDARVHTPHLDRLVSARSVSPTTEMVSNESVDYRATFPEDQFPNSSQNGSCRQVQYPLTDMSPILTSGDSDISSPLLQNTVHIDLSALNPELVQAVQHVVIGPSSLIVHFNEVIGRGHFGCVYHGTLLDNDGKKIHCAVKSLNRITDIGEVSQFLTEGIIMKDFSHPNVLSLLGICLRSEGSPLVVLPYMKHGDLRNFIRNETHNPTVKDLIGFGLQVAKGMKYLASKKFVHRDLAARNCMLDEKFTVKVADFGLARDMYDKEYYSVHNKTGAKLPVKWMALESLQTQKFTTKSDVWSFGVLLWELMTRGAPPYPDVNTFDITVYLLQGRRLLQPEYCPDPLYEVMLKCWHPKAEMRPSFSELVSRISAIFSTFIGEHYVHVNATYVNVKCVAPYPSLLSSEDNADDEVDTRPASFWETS

On to `COc1nc(OC)nc(Oc2ccc(NC(=O)c3c4n(n(-c5ccccc5)c3=O)CCCC4)cc2)n1` [DC621003, N-(4-((4,6-dimethoxy-1,3,5-triazine-2-yl)oxy)phenyl)-2-oxo-1-phenyl-1,2,4,5,6,7-hexahydro[1,5-a]pyridine-3-formamide, reference compound], for which, in test [1], the inhibition at 0.01 µM was -15.5%, the inhibition at 0.1 µM came to 2.8%, the inhibition at 1 µM is -7.2% and the “AXL activity (in words)” value is “almost no activity”.

As for `Cc1nccc(Oc2ccc(NC(=O)c3c4n(n(-c5ccccc5)c3=O)CCCC4)cc2)n1` [DC621005, N-(4-((2-methylpyrimidine-4-yl)oxy)phenyl)-2-oxo-1-phenyl-1,2,4,5,6,7-hexahydro[1,5-a]pyridine-3-formamide, reference compound], in test [1], the inhibition at 0.01 µM is -14.6%, the inhibition at 0.1 µM was 18.3%, the inhibition at 1 µM was -7.8% and the “AXL activity (in words)” value is recorded as “almost no activity”.

As to `O=C(Nc1ccc(Oc2ncnc3cc4c(cc23)OCCOCCOCCO4)c(F)c1)c1c2n(n(-c3ccccc3)c1=O)CCCC2` [DC621061, N-(3-fluoro-4-((7,8,10,11,13,14-hexahydro-[1,4,7,10]tetraoxacyclododecane [2,3-g]quinazolin-4-yl)oxy)phenyl)-2-oxo-1-phenyl-1,2,4,5,6,7-hexahydropyrazolo[1,5-a]pyridine-3-formamide], the inhibition at 0.001 µM in test [1] was 22.9%. For the same compound, the inhibition at 0.01 µM in test [1] was 66.7%; in test [2] (10 nM) it was 51.1%. Further, the inhibition at 0.1 µM in test [1] was 91.8%; in test [2] (100 nM), 94.7%. For the same compound, the “c-Met Inhibitory rate (%)” value in test [2] (1 nM, 0.001 µM) is 35.7% and 61.1%; in test [2] (10 nM, 0.01 µM) it was 62.4%; in test [2] (100 nM, 0.1 µM), 95.7%.

As to `O=C(Nc1ccc(Oc2ncnc3cc4c(cc23)OCCOCCOCCO4)c(Cl)c1)c1c2n(n(-c3ccccc3)c1=O)CCCC2` [DC621062, N-(3-chloro-4-((7,8,10,11,13,14-hexahydro-[1,4,7,10]tetraoxacyclododecane [2,3-g]quinazolin-4-yl)oxy)phenyl)-2-oxo-1-phenyl-1,2,4,5,6,7-hexahydropyrazolo[1,5-a]pyridine-3-formamide], the inhibition at 0.001 µM in test [1] came to 6.3%. The inhibition at 0.01 µM in test [1] is 43%. Further, the figures for the inhibition at 0.1 µM in test [1] and in test [2] (100 nM) were 70.6% and 99.8%, respectively. Also, the “c-Met Inhibitory rate (%)” value in test [2] (1 nM, 0.001 µM) was 35.9% and 68.6%; in test [2] (10 nM, 0.01 µM) it was 78.1% and 98.9%; in test [2] (100 nM, 0.1 µM), 100%.

Take `O=C(Nc1ccc(Oc2ncnc3cc4c(cc23)OCCOCCOCCO4)c(Cl)c1)c1c2n(n(-c3cc(F)ccc3F)c1=O)CCCC2` [DC621064, 1-(2,5-difluorophenyl)-N-(3-chloro-4-((7,8,10,11,13,14-hexahydro-[1,4,7,10]tetraoxacyclododecane [2,3-g]quinazolin-4-yl)oxy)phenyl)-2-oxo-1,2,4,5,6,7-hexahydropyrazolo[1,5-a]pyridine-3-formamide]: in test [1], the inhibition at 0.001 µM was 30.8%, the inhibition at 0.01 µM amounted to 47.4% and the inhibition at 0.1 µM stood at 83.4%.

Consider `O=C(Nc1ccc(Oc2ncnc3cc4c(cc23)OCCOCCOCCO4)c(F)c1)c1c2n(n(-c3ccccc3F)c1=O)CCCC2` [DC621065, N-(3-fluoro-4-((7,8,10,11,13,14-hexahydro-[1,4,7,10]tetraoxacyclododecane [2,3-g]quinazolin-4-yl)oxy)phenyl)-1-(2-fluorophenyl)-2-oxo-1,2,4,5,6,7-hexahydropyrazolo[1,5-a]pyridine-3-formamide], for which, in test [1], the inhibition at 0.001 µM was 29.6%, the inhibition at 0.01 µM turned out to be 45.8% and the inhibition at 0.1 µM was determined as 95%.

`O=C(Nc1ccc(Oc2ncnc3cc4c(cc23)OCCOCCOCCO4)c(Cl)c1)c1c2n(n(-c3ccc(F)cc3)c1=O)CCCC2` [DC621068, N-(3-chloro-4-((7,8,10,11,13,14-hexahydro-[1,4,7,10]tetraoxacyclododecane[2,3-g]quinazolin-4-yl)oxy)phenyl)-1-(4-fluorophenyl)-2-oxo-1,2,4,5,6,7-hexahydropyrazolo[1,5-a]pyridine-3-formamide]: the inhibition at 0.001 µM is 16.5% in test [1] and 34% in test [2] (1 nM). Besides, the inhibition at 0.01 µM in test [1] turned out to be 55.1%; in test [2] (10 nM), 71.2%. Besides, the inhibition at 0.1 µM in test [1] turned out to be 85.8%; in test [2] (100 nM), 100%. The “c-Met Inhibitory rate (%)” value in test [2] (1 nM, 0.001 µM) came out at 46.0%; in test [2] (10 nM, 0.01 µM) it was 85.9%.

Regarding `COCCOc1cc2ncnc(Oc3ccc(NC(=O)c4c5n(n(-c6ccccc6)c4=O)CCCC5)cc3Cl)c2cc1OCCOC` [DC621070, N-(4-((6,7-bis(2-methoxyethoxy)quinazolin-4-yl)oxy)-3-chlorophenyl)-2-oxo-1-phenyl-1,2,4,5,6,7-hexahydropyrazolo[1,5-a]pyridine-3-formamide], in test [1], the inhibition at 0.001 µM stood at 2.4%, the inhibition at 0.01 µM worked out at 60.5% and the inhibition at 0.1 µM came out at 91.1%.

Take `COCCOc1cc2ncnc(Oc3ccc(NC(=O)c4c5n(n(-c6ccccc6)c4=O)CCCC5)cc3C(F)(F)F)c2cc1OCCOC` [DC621072, N-(4-((6,7-bis(2-methoxyethoxy)quinazolin-4-yl)oxy)-3-trifluoromethylphenyl)-2-oxo-1-phenyl-1,2,4,5,6,7-hexahydropyrazolo[1,5-a]pyridine-3-formamide]: the inhibition at 0.001 µM in test [1] worked out at 34.8%; in test [2] (1 nM) it was 24.1%. Besides, the inhibition at 0.01 µM in test [1] was determined as 52.1%; in test [2] (10 nM), 67.6%. Moreover, the inhibition at 0.1 µM in test [1] came out at 75.9%; in test [2] (100 nM) it was 95.8%. The “c-Met Inhibitory rate (%)” value in test [2] (1 nM, 0.001 µM) was found to be 34.3%; in test [2] (10 nM, 0.01 µM), 68.4%; in test [2] (100 nM, 0.1 µM) it was 96.6%.

Take `COCCOc1cc2ncnc(Oc3ccc(NC(=O)c4c5n(n(-c6cc(F)ccc6F)c4=O)CCCC5)cc3Cl)c2cc1OCCOC` [DC621080, 1-(2,5-difluorophenyl)-N-(4-((6,7-bis(2-methoxyethoxy)quinazolin-4-yl)oxy)-3-chlorophenyl)-2-oxo-1,2,4,5,6,7-hexahydropyrazolo[1,5-a]pyridine-3-formamide]: the inhibition at 0.001 µM in test [1] came out at 35.5%. Besides, the inhibition at 0.01 µM amounted to 76.4% in test [1] and 68.8% in test [2] (10 nM). The inhibition at 0.1 µM turned out to be 100% in test [1] and 97.1% in test [2] (100 nM). The “c-Met Inhibitory rate (%)” value is 58.3% in test [2] (10 nM, 0.01 µM) and 93.5% in test [2] (100 nM, 0.1 µM).

As for `COc1cc2ncnc(Oc3ccc(NC(=O)c4c5n(n(-c6cc(F)ccc6F)c4=O)CCCC5)cc3C(F)(F)F)c2cc1OC` [DC621081, 1-(2,5-difluorophenyl)-N-(4-((6,7-dimethoxyquinazoline-4-yl)oxy)-3-trifluoromethylphenyl)-2-oxo-1,2,4,5,6,7-hexahydropyrazolo[1,5-a]pyridine-3-formamide], in test [1], the inhibition at 0.001 µM came to 16.3%, the inhibition at 0.01 µM was 34.9% and the inhibition at 0.1 µM was found to be 79.2%.

On to `COCCOc1cc2ncnc(Oc3ccc(NC(=O)c4c5n(n(-c6ccccc6F)c4=O)CCCC5)cc3Cl)c2cc1OCCOC` [DC621090, N-(4-((6,7-bis(2-methoxyethoxy)quinazolin-4-yl)oxy)-3-chlorophenyl)-1-(2-fluorophenyl)-2-oxo-1,2,4,5,6,7-hexahydropyrazolo[1,5-a]pyridine-3-formamide], for which, in test [1], the inhibition at 0.001 µM came out at 21.1%, the inhibition at 0.01 µM turned out to be 62.9% and the inhibition at 0.1 µM came out at 92.7%.
